Data reported in publication PMC10783014, “Structure-based virtual screening and in vitro validation of inhibitors of cyclic dinucleotide phosphodiesterases ENPP1 and CdnP” (Microbiology Spectrum, 2023).
In brackets after ≈: the same amount, converted by molar mass. Several values for one entry are separate records, joined by “and”; a condition that tells them apart may be missing. Equal entries are not always repeated. Where two headings read alike, the source gives them in different places.

Key:
[1] = target: T1, human ENPP1 (Homo sapiens, UniProt P22413); test: Luminescence-based AMP-Glo ENPP1 enzyme inhibition assay with 2′,3′-cGAMP substrate; type: biochemical; settings: 2′,3′-cGAMP 300 µM, ENPP1 5 µM
T1 construct: purchased Origene
T1 sequence (P22413 1-925): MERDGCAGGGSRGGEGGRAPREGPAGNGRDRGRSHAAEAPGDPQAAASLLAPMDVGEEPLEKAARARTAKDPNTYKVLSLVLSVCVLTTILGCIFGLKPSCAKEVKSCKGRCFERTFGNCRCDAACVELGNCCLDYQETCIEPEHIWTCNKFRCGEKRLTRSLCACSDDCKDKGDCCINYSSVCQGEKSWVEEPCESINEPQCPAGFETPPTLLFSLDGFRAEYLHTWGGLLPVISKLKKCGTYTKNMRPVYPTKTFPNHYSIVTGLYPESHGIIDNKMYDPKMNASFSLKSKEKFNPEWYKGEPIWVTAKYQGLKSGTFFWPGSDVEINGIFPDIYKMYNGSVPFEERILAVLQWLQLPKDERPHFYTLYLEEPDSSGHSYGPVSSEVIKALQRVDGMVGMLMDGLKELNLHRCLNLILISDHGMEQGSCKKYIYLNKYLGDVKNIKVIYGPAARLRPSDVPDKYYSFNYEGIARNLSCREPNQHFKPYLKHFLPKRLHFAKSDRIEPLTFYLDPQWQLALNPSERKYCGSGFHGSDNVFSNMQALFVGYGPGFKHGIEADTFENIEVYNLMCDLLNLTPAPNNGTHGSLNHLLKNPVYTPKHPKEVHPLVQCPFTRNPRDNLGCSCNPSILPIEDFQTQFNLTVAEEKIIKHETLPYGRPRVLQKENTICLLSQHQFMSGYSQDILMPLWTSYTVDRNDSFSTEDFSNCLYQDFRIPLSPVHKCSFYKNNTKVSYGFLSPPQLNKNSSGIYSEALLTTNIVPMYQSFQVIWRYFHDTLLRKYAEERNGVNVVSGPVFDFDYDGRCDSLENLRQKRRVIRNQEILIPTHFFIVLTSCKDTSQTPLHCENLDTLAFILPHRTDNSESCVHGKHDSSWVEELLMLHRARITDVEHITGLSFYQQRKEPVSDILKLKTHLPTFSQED

[2] = test system: Vero cells; test: Vero cell cytotoxicity, resazurin dye reduction assay; type: cell-based, African green monkey
[3] = target: T2, M.tb CdnP (Mycobacterium tuberculosis, UniProt P71615); test: biochemical
[4] = target: T2, M.tb CdnP; type: biochemical
[5] = test system: RAW-Blue IRF3 ISG reporter macrophages; test: IRF3 induction in RAW-Blue IRF3-SEAP reporter macrophages after 2′,3′-cGAMP transfection (QUANTI-Blue); type: cell-based, mouse; settings: 165 µM E-3 plus 1 nM 2′,3′-cGAMP, 24 h
[6] = test system: primary human monocyte-derived macrophages (hMDMs); test: IFN-β release by human monocyte-derived macrophages after 2′,3′-cGAMP transfection (ELISA); type: cell-based
[7] = Chlorocebus sabaeus, Vero, 48 h, Vero cell growth inhibition, 48 h then resazurin overnight, read-out: IC50 Vero cells
[8] = Vero cell growth inhibition, 48 h then resazurin overnight, read-out: IC50 Vero cells
[9] = Vero cell growth inhibition, 48 h then resazurin overnight
[10] = 1 nM 2′,3′-cGAMP in the presence of 165 µM E-3, 24 h

T2 sequence (P71615 whole entry, looked up): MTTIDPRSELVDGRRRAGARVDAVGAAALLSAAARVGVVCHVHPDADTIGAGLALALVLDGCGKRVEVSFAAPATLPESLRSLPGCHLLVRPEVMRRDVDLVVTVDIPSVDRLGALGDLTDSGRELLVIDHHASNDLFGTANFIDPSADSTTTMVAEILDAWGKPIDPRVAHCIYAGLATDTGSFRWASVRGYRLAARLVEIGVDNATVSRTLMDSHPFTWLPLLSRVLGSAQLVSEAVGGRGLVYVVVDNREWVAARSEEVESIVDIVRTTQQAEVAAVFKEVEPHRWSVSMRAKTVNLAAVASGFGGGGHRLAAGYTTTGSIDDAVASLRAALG

| Molecule | IC50 [1] | IC50 [2, 7] | IC50 [2, 8] | IC50 ([3]; IC50 CdnP) | other results |
| --- | --- | --- | --- | --- | --- |
| O=C(Nc1n[nH]c(NC(=O)c2ccccc2)n1)c1ccccc1 [Inhibitor E-27] | 16.3 µM | > 100 µg/mL | > 326 µM |  |  |
| c1cc2c(cc1C(N1CCNCC1)N1CCNCC1)OCO2 [Inhibitor E-12] | 41.1 µM |  | > 329 µM |  | IC50 ENPP1 [1]: 12.5 µg/mL (≈ 41.1 µM); IC50 Vero cells [2, 9]: > 100 µg/mL |
| CC(OCCCCOC(C)n1cnc2c(=O)nc[nH]c21)n1cnc2c(=O)nc[nH]c21 (stereo not drawn) [Inhibitor C-13] | > 241 µM | > 100 µg/mL | > 241 µM | 9.66 µM and 9.65 µM |  |
| O=C(C[N+]12CN3CN(CN(C3)C1)C2)c1ccc2ccccc2c1 [Inhibitor C-5] | > 257 µM |  | 154 µM |  | IC50 CdnP [3]: 28.8 (11.2) µg/mL; IC50 ([3]; read-out: IC50 CdnP): 28.8 µM; IC50 ENPP1 [1]: > 100 µg/mL; IC50 Vero cells [2, 9]: 60 µg/mL |
| NC1CC2NC3CCCCC3NC2CC1N (stereo not drawn) [Inhibitor E-37] | 44.6 µM |  |  |  | IC50 ([2]; Chlorocebus sabaeus, Vero, 48 h, read-out: IC50 Vero cells, Vero cell growth inhibition, 48 h then resazurin overnight): > 100 µg/mL; IC50 ([2]; read-out: IC50 Vero cells, Vero cell growth inhibition, 48 h then resazurin overnight): > 446 µM |
| c-di-AMP |  |  |  |  | Km [4]: 51.4 µM; Vmax for CdnP [4]: 0.5664 µM/min |
| Cc1c2cc[n+](C)cc2c(COC2OC(CO)C(O)C2O)c2c3ccccc3n(C)c12 (stereo not drawn) [Inhibitor C-29] | 19.4 µM | > 100 µg/mL | > 237 µM | 14.2 µM |  |
| O=C(NNc1nc(NC2CCCCC2)nc(NC2CCCCC2)n1)c1ccccc1 [Inhibitor E-60] | 9.8 µM and 9.77 µM | > 100 µg/mL | > 245 µM |  |  |
| Cc1ccc(Nc2nc(N)nc(Nc3ccc4ccccc4c3)n2)cc1 [Inhibitor E-3] | 26.4 µM and 29.2 µM | > 100 µg/mL | > 264 µM |  | IRF induction (SEAP signal) [5]: 1.1 A655 units; fold increased IRF signal versus cGAMP alone [5]: 2.75 fold; IFN-β release [6, 10]: 95 pg/mL; fold increase in IFN-β release versus cGAMP alone [6, 10]: 2.1 fold; IFN-β release ([6]; 165 µM E-3 alone, no cGAMP): 10 pg/mL |
| NNc1nc(N2CCCCC2)c2[nH]cnc2n1 [Inhibitor C-76] | > 429 µM |  | > 429 µM |  | IC50 CdnP [3]: 42.9 (10) µg/mL; IC50 ([3]; read-out: IC50 CdnP): 42.9 µM; IC50 ENPP1 [1]: > 100 µg/mL; IC50 Vero cells [2, 9]: > 100 µg/mL |
| Cc1ccc(S(=O)(=O)NN=c2nc(N3CCCC3)[nH]c(N3CCCC3)n2)cc1 [Inhibitor C-34] | 63.3 µM and 63.4 µM | > 100 µg/mL | > 247 µM | 13.1 µM |  |
| O=S(=O)(NN=c1nc(N2CCCC2)[nH]c(N2CCCC2)n1)c1ccccc1 [Inhibitor C-33] | 60.5 µM and 60.3 µM | > 100 µg/mL | > 257 µM | 18.8 µM and 18.7 µM |  |
